The source of these data is US5468875A, “1-azabicycloheptane derivatives” (American Home Products Corporation, priority 1994, dated 1995).

The structures appear in SMILES notation. Where two headings read alike, the source gives them in different places.

In one data set the target is m1 receptor (Homo sapiens, UniProt P11229). Description: biochemical. The conditions noted are these: ml 3H QNB Binding in CHO cells Ki, 0.23 nM [3H]QNB, 37° C., one hour.
The target of data set [1] is T1, M1 acetylcholine receptors (Homo sapiens, UniProt P11229).
T1 sequence (P11229 1-460): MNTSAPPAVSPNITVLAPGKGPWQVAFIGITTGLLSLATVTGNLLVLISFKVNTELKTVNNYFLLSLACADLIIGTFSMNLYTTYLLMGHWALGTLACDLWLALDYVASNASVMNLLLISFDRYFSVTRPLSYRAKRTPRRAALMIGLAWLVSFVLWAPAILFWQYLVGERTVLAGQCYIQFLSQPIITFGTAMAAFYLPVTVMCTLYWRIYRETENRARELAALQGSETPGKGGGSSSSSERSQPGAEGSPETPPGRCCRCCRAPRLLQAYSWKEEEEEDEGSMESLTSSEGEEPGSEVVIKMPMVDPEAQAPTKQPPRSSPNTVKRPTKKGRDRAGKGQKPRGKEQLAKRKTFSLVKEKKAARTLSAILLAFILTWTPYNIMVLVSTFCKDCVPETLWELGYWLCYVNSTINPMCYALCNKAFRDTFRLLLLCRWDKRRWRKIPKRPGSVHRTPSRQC
The experiment in a line: stimulation of phosphoinositide (PI) hydrolysis in CHO cells transfected with M1 receptor cDNA. Format: cell-based. The conditions noted are these: for Emax: CHO, 1 h; for functional m1 muscarinic agonism: exo versus endo, in words; for EC50: m1 receptors in CHO cells, read-out: % PI Hydrolysis ml receptors in CHO cells ED50.

Data set [2] relates to scopolamine disrupted rat performance. Description: eight arm radial maze test, scopolamine disrupted performance. To be noted: ip, rats, test compound i.p., scopolamine HBr 0.3 mg/kg, s.c., read-out: minimum effective dose (MED), reversal of scopolamine disrupted rat performance. Format: in vivo, Sprague-Dawley male rats. As to the method:
The compound of Example 3 was also tested in the eight arm radial maze test procedure in which Sprague-Dawley male rats at 85% of their free feeding weight are trained to obtain two food pellets from food cups placed at the ends of four of the eight arms radiating from a circular central area of the maze, in a five minute period. After training to a level of error (rerum to a previously entered arm is error) equal to or less than 2, the rats performance is disrupted with scopolamine HBr (0.3 mg/kg, s.c.) and test compound dosage (i.p.). The number of errors are then determined and compared with control receiving scopolamine alone.

Data set [3] concerns scopolamine treated animals. The experiment in a line: reversal of scopolamine-induced hyperactivity, swim tank test. In kind it is in vivo, Male CFW mice. The conditions noted are these: Mus musculus, ip, 5 min, mice, scopolamine.HBr 0.3 mg/kg i.p., swim distance, read-out: minimum effective dose (MED), reversal of hyperactivity of scopolamine treated animals. As to the method:
The compound of Example 3, representative of the other compounds of this invention, was also tested in accordance with the procedure of Symons et al, Soc. Neuroscience Abstracts 12:2, 897 (1986) in which Male CFW mice, 25 to 35 grams in weight are given the test compound in suitable vehicle plus 0.3 mg/kg scopolamine.HBr in suitable vehicle, i.p.(3 groups of 12 animals each) or vehicle alone (1 group of 12 animals ) or vehicle plus scopolamine.HBr (1 group of 12 animals). The mice are placed in a swim tank, individually, containing 10 cm H2 O for a period of 5 minutes and the distance each animal swims is recorded.

For data set [4] the following is noted: cited from earlier work.
In data set [5] the test system is patients with mild to moderate Alzheimer's Disease. The conditions noted are these: cited from earlier work; for improvement in memory: patients with mild to moderate Alzheimer's Disease.
In another data set the test system is muscarinic. The conditions noted are these: cited from earlier work.
For another data set, the system named is m1 receptors. The conditions noted are these: cited from earlier work.
Where [6] appears, read: read-out: % PI Hydrolysis ml receptors in CHO cells 30x Ki (μM) carb=100%.
[7] abbreviates: read-out: % PI Hydrolysis ml receptors in CHO cells maximum % carbachol=100%.

By Ki is commonly meant the equilibrium dissociation constant of an inhibitor or competing ligand from its target. A low value points to tighter binding. Molecule `CNC(=O)O[C@H]1CN2CC[C@H]1C2` (relative stereo) [Example 1, (exo)-Methylcarbamic acid 1-aza-bicyclo[2.2.1]hept-3-yl ester] returned a Ki on m1 receptor of 29.3 µM. Further, in data set [1] (setting [6]), the Emax was 61.9%. In data set [1] (setting [7]), the Emax is 54.9%. In data set [1], the “functional m1 muscarinic agonism” value was “enhanced muscarinic agonism” and the EC50 was 6.9 µM. For `CNC(=S)O[C@H]1CN2CC[C@H]1C2` (relative stereo) [Example 4, (exo)-Methylthiocarbamic acid 1-aza-bicyclo[2.2.1]hept-3-yl ester], on m1 receptor, the Ki came to 3.72 µM. Also, in data set [1] (setting [6]), the Emax came out at 21.8%.

In turn, `O=C(NCC(F)(F)F)O[C@H]1CN2CC[C@H]1C2` (relative stereo) [Example 9, (exo)-(2.2.2-Trifluoroethyl)carbamic acid 1-aza-bicyclo[2.2.1]hept-3-yl ester] gave a Ki at m1 receptor of 14.5 µM. Regarding `O=C(NC1CC1)O[C@H]1CN2CC[C@H]1C2` (relative stereo) [Example 11, (exo)-Cyclopropylcarbamic acid 1-aza-bicyclo[2.2.1]hept-3-yl ester], affinity on m1 receptor was put at a Ki of 1.81 µM. Besides, the Emax in data set [1] (setting [6]) came to 10.1%. Turning to `CNC(=O)O[C@H]1CN2CC[C@@H]1C2` (relative stereo) [endo azacycloheptane analog], the “functional m1 muscarinic agonism” value in data set [1] is on record as “not”. `CNC(=O)O[C@H]1CN2CC[C@H]1C2` (single isomer, unassigned) [Example 2, (+)-(exo)-Methylcarbamic acid 1-aza-bicyclo[2.2.1]hept-3-yl ester]: affinity on m1 receptor was put at a Ki of 41.8 µM. Besides, the minimal effective dose in data set [2] turned out to be 1 mg/kg. `CNC(=O)O[C@H]1CN2CC[C@H]1C2` (single isomer, unassigned) [Example 3, (-)-(exo)-Methylcarbamic acid 1-aza-bicyclo[2.2.1]hept-3-yl ester] displayed an inhibition constant Ki at m1 receptor of 26.6 µM. For the same molecule, the Emax worked out at 71.9% in data set [1] (setting [6]) and 68.7% in data set [1] (setting [7]). Moreover, the EC50 in data set [1] is 9.8 µM. The minimal effective dose in data set [3] stood at 30 mg/kg.

For `CNC(=S)O[C@H]1CN2CC[C@H]1C2` (single isomer, unassigned) [Example 5, (+)-(exo)-Methylthiocarbamic acid 1-aza-bicyclo[2.2.1]hept-3-yl ester], at m1 receptor, affinity was put at a Ki of 6.93 µM. Besides, the Emax in data set [1] (setting [7]) was 51.5%. Besides, in data set [1], the EC50 is 2.9 µM. For `CNC(=S)O[C@H]1CN2CC[C@H]1C2` (single isomer, unassigned) [Example 6, (-)-(exo)-Methylthiocarbamic acid 1-aza-bicyclo[2.2.1]hept-3-yl ester], at m1 receptor, the affinity, expressed as Ki, was 14.5 µM. For the same molecule, the “% PI Hydrolysis ml receptors in CHO cells maximum % carbachol=100%” value in data set [1] (cho cells, 60 min) is reported as 69.7%. Further, the EC50 in data set [1] amounted to 6.3 µM. With `CCNC(=O)O[C@H]1CN2CC[C@H]1C2` (single isomer, unassigned) [Example 7, (+)-(exo)-Ethylcarbamic acid 1-aza-bicyclo[2.2.1]hept-3-yl ester], the Ki at m1 receptor came out at 14.3 µM. For the molecule `CCNC(=O)O[C@H]1CN2CC[C@H]1C2` (single isomer, unassigned) [Example 8, (-)-(exo)-Ethylcarbamic acid 1-aza-bicyclo[2.2.1]hept-3-yl ester], the Ki on m1 receptor stood at 21.5 µM. For the same molecule, the Emax in data set [1] (setting [6]) worked out at 58.8%. Molecule `O=C(NCC(F)(F)F)O[C@H]1CN2CC[C@H]1C2` (single isomer, unassigned) [Example 10, (-)-(exo)-(2.2.2-Trifluoroethyl)carbamic acid 1-aza-bicyclo[2.2.1]hept-3-ylester] came in with a Ki on m1 receptor of 17.6 µM. Consider `O=C(NC1CC1)O[C@H]1CN2CC[C@H]1C2` (single isomer, unassigned) [Example 12], for which the Ki at m1 receptor amounted to 20.5 µM. Turning to `C#CCNC(=O)O[C@H]1CN2CC[C@H]1C2` (single isomer, unassigned) [Example 13, (-)-(exo)-Propargylcarbamic acid 1-aza-bicyclo[2.2.1]hept-3-yl ester], the Ki at m1 receptor was 14.5 µM. Moreover, the Emax in data set [1] (setting [6]) is 39.4%. Regarding `COC(=O)C1=CCCN(C)C1` [Arecoline, arecoline], the half-life entry in data set [4] is recorded as “short half-life”. The improvement in memory result in data set [5] was “demonstrated memory improvement in patients with mild to moderate Alzheimer's Disease”. Regarding `CNC(=O)OC1CN2CCCC1C2` (stereo not drawn) [exo-1-azabicyclo[3.2.1oct-6-yl-N-methylcarbamate], the muscarinic activity result with muscarinic is recorded as “having muscarinic activity”. For the molecule `CN(C)C(=O)OC1CC2CCCN(C2)C1` (stereo not drawn) [exo-1-azabicyclo[3.3.1]non-3-yl-N,N-dimethylcarbamate], the muscarinic activity result with muscarinic is recorded as “having muscarinic activity”.

As to `CNC(=O)OC1CC2CCCN(C2)C1` (stereo not drawn) [exo-1-azabicyclo[3.3.1]non-3-yl-N-methylcarbamate], in the data set with muscarinic, the muscarinic activity entry is “having muscarinic activity”.

With `C[C@@H]1O[C@H](C[N+](C)(C)C)C[C@H]1O` [muscarine], the “activation of m1 receptors” value with m1 receptors is listed as “able to fully activate m1 receptors”. On to `Nc1c2c(nc3ccccc13)CCCC2` [tactine], for which, in data set [5] (higher doses), the adverse side effects entry is listed as “adverse side effects especially at the higher doses where it is most effective”. Further, the improvement in memory result in data set [5] was “improvement in memory can be shown in patients with mild to moderate Alzheimer's Disease”.
